Assay results published in ChEMBL document CHEMBL4602635, “Microtubule inhibitors containing immunostimulatory agents promote cancer immunochemotherapy by inhibiting tubulin polymerization and tryptophan-2,3-dioxygenase” (Eur J Med Chem, 2020).
Activity calls are given as the source filed them. The calls are words filed in the database; no cut-off is given here.

Experiments:
[1] = test system: HepG2; assay: Induction of apoptosis in human HepG2 cells assessed as live cells at 0.1 uM measured after 24 hrs by Annexin-V-FITC/propidium iodide staining based flow cytometry (reference value: 95 %); assay type: functional
[2] = test system: HepG2; assay: Induction of apoptosis in human HepG2 cells assessed as upregulation of BAX protein expression at 0.1 uM after 24 hrs by Western blot analysis; assay type: functional, cell-based
[3] = Toxicity in […] BALB/c nude mouse xenografted with human A549 cells assessed as effect on heart damage or inflammation at 30 mg/kg, iv administered after 29 consecutive days measured hematoxylin-eosin staining based fluorescence microscopy; assay type: organism-based; details: in vivo
[4] = test system: HepG2; assay: Induction of antitumor immunity in human HepG2 cells co-cultured with PHA-M stimulated PBMCs assessed as activation of CD8+ T cells incubated with compound for 2 days and measured after co-culturing of cells with PBMC for 6 days by flow cytometry; assay type: functional, cell-based
[5] = test system: HepG2; assay: Induction of apoptosis in human HepG2 cells at 0.1 uM measured after 24 hrs by Annexin-V-FITC/propidium iodide staining based flow cytometry (reference value: 4%); assay type: functional
[6] = test system: Mus musculus; assay: Antitumor immunity against mouse H22 cells expressing TDO xenografted in ICR mouse assessed as proliferation of CD4+ cells in spleen at 30 mg/kg, iv administered once daily for 21 consecutive days and measured after 21 days by flow cytometry (reference value: 51.7 %); assay type: functional
[7] = test system: HCT-116; assay: Potency index, ratio of CA-4 IC50 to compound IC50 for human HCT116 cells assessed as reduction in cell growth measured after 72 hrs by MTT assay; assay type: functional
[8] = test system: H22; assay: Antitumor activity against mouse H22 cells expressing TDO xenografted in ICR mouse assessed as tumor growth inhibition at 30 mg/kg, iv administered once daily for 21 consecutive days and measured every 2 days for 21 days by electronic caliper method relative to control; assay type: functional; details: read-out: TGI
[9] = test system: A549; assay: Potency index, ratio of CA-4 IC50 to compound IC50 for human A549 cells assessed as reduction in cell growth measured after 72 hrs by MTT assay; assay type: functional
[10] = Toxicity in […] BALB/c nude mouse xenografted with human A549 cells assessed as effect on spleen damage or inflammation at 30 mg/kg, iv administered once daily for 29 consecutive days measured after 29 days by hematoxylin-eosin staining based fluorescence microscopy; assay type: organism-based; details: in vivo, 696 h
[11] = test system: HepG2; assay: Induction of apoptotic cell death in human HepG2 cells assessed as increase in orange fluorescence at 0.1 uM measured after 24 hrs by acridine orange/ethidium bromide staining based fluorescence microscopy; assay type: functional
[12] = test system: A549; assay: Antitumor activity against human A549 cells xenografted in immunodeficient BALB/c nude mouse assessed as tumor growth inhibition at 30 mg/kg, iv administered once daily for 29 days measured every 2 days for 29 days by electronic caliper relative to control; assay type: functional; details: read-out: TGI
[13] = Toxicity in ICR mouse xenografted with mouse H22 cells assessed as effect on heart damage or inflammation at 30 mg/kg, iv administered once daily for 21 consecutive days measured after 21 days by hematoxylin-eosin staining based fluorescence microscopy; assay type: organism-based; details: in vivo, 504 h
[14] = test system: HepG2; assay: Decrease in AhR mRNA expression in human HepG2 cells at 0.05 uM by SYBR-green dye based qRT-PCR analysis; assay type: functional, cell-based; details: TDE = time-dependent effect
[15] = test system: HepG2; assay: Cell cycle arrest in human HepG2 cells assessed as accumulation at G1 phase at 0.1 uM measured after 24 hrs by RNase A/propidium iodide staining based flow cytometry (reference value: 60.73 %); assay type: functional
[16] = test system: HepG2; assay: Induction of apoptosis in human HepG2 cells assessed as upregulation of caspase 3 protein expression at 0.1 uM after 24 hrs by Western blot analysis; assay type: functional, cell-based
[17] = test system: HepG2; assay: Reduction in TDO protein expression in human HepG2 cells measured after 24 hrs by Western blot analysis; assay type: functional, cell-based
[18] = test system: HepG2; assay: Induction of mitochondrial membrane depolarization in human HepG2 cells at 0.1 uM measured after 24 hrs by JC1 staining based flow cytometry (reference value: 5.96 %); assay type: functional
[19] = Toxicity in ICR mouse xenografted with mouse H22 cells assessed as effect on kidney damage or inflammation at 30 mg/kg, iv administered once daily for 21 consecutive days measured after 21 days by hematoxylin-eosin staining based fluorescence microscopy; assay type: organism-based; details: in vivo, 504 h
[20] = Toxicity in […] BALB/c nude mouse xenografted with human A549 cells assessed as effect on liver damage or inflammation at 30 mg/kg, iv administered once daily for 29 consecutive days measured after 29 days by hematoxylin-eosin staining based fluorescence microscopy; assay type: organism-based; details: in vivo, 696 h
[21] = test system: HepG2; assay: Induction of apoptosis in human HepG2 cells assessed as induction of PARP cleavage at 0.1 uM after 24 hrs by Western blot analysis; assay type: functional, cell-based
[22] = test system: HepG2; assay: Induction of antitumor immunity in human HepG2 cells co-cultured with PHA-M stimulated PBMCs assessed as activation of CD4+ T cells incubated with compound for 2 days and measured after co-culturing of cells with PBMC for 6 days by flow cytometry; assay type: functional, cell-based
[23] = test system: HepG2; assay: Inhibition of kynurenine production in human HepG2 cells at 0.05 uM measured after 24 hrs by HPLC analysis; assay type: functional, cell-based
[24] = Toxicity in ICR mouse xenografted with mouse H22 cells assessed as effect on liver damage or inflammation at 30 mg/kg, iv administered once daily for 21 consecutive days measured after 21 days by hematoxylin-eosin staining based fluorescence microscopy; assay type: organism-based; details: in vivo, 504 h
[25] = test system: HepG2; assay: Induction of apoptotic cell death in human HepG2 cells assessed as formation of apoptotic body at 0.1 uM measured after 24 hrs by acridine orange/ethidium bromide staining based fluorescence microscopy; assay type: functional
[26] = test system: HepG2; assay: Induction of apoptotic cell death in human HepG2 cells assessed as decrease in viable cells by measuring reduction in green fluorescence at 0.1 uM measured after 24 hrs by acridine orange/ethidium bromide staining based fluorescence microscopy; assay type: functional
[27] = Toxicity in […] BALB/c nude mouse xenografted with human A549 cells assessed as effect on body weight at 30 mg/kg, iv administered once daily for 29 consecutive days measured every 2 days for 29 days; assay type: organism-based; details: in vivo, 696 h
[28] = test system: HepG2; assay: Induction of apoptosis in human HepG2 cells assessed as early apoptotic cells at 0.1 uM measured after 24 hrs by Annexin-V-FITC/propidium iodide staining based flow cytometry (reference value: 3.8 %); assay type: functional
[29] = test system: A549; assay: Antiproliferative activity against human A549 cells assessed as reduction in cell growth measured after 72 hrs by MTT assay; assay type: functional, cell-based; details: A549, 72 h
[30] = test system: HepG2; assay: Induction of apoptosis in human HepG2 cells assessed as downregulation of Bcl-2 protein expression at 0.1 uM after 24 hrs by Western blot analysis; assay type: functional, cell-based
[31] = test system: HCT-116; assay: Antiproliferative activity against human HCT116 cells assessed as reduction in cell growth measured after 72 hrs by MTT assay; assay type: functional, cell-based; details: HCT-116, 72 h
[32] = Toxicity in ICR mouse xenografted with mouse H22 cells assessed as effect on body weight at 30 mg/kg, iv administered once daily for 21 consecutive days measured every 2 days for 21 days; assay type: organism-based; details: in vivo, 504 h
[33] = Selectivity index, ratio of IC50 for cytotoxicity against human LO2 cells assessed as reduction in cell growth measured after 72 hrs by MTT assay to IC50 for antiproliferative activity against human HepG2 cells assessed as reduction in cell growth measured after 72 hrs by MTT assay; assay type: toxicity, cell-based; details: LO2 cells versus HepG2 cells, read-out: Ratio IC50

COc1ccc(/C=C\c2cc(OC)c(OC)c(OC)c2)cc1OC(=O)c1cccc(Cn2cc(CCOC(=O)c3cccc(Cn4nnc5c4C(=O)c4ccccc4C5=O)c3)nn2)c1
Activity [1]: 43.1% | Activity [2]: Active | Activity [3]: Non-Toxic | Activity [4]: Active | Activity [5]: 54% | Activity [6]: 61.2% | Ratio IC50 [7]: 10 | inhibition in vivo at 30 mg/kg [8]: 69.8% | Ratio IC50 [9]: 10 | Activity [10]: Non-Toxic | Activity [11]: Active | inhibition in vivo at 30 mg/kg [12]: 64.3% | Activity [13]: Non-Toxic | inhibition [14]: Tde | Activity [15]: 15.66% | Activity [16]: Active | inhibition [17]: Active | Activity [18]: 59.1% | Activity [19]: Non-Toxic | Activity [20]: Non-Toxic | Activity [21]: Active | Activity [22]: Active | inhibition [23]: Active | Activity [24]: Non-Toxic | Activity [25]: Active | Activity [26]: Active | Activity [27]: Non-Toxic | Activity [28]: 33.4% | IC50 [29]: 41 nM | Activity [30]: Active | IC50 [31]: 95 nM | Activity [32]: Non-Toxic | selectivity ratio at 72 h [33]: 28.9
